Laboratory results reported in PMC12040169 (PLOS Biology, 2025).

Test: in vitro
Settings: human, hela cells, % viability

| Compound | viability at 28.5 h, 10 µM [%] |
| --- | --- |
| COc1ccc(CC(=O)NC2CC(C)(C)Cc3c2cnn3C)cc1 (stereo not shown) [CBK282886] | 99 |
| Cc1cc2cc(C(F)(F)F)nc-2n(CC(=O)NC2CC2)c1 [CBK282888] | 106 |
| CC(C)CC(=O)N1CCCC(n2c(=O)oc3ccc(Cl)cc32)C1 (stereo not shown) [CBK282891] | 89.3 |
| O=C(c1ccco1)N1CCCC(n2c(=O)oc3ccc(Cl)cc32)C1 (stereo not shown) [CBK282892] | 91.5 |
| Cc1ccc2c(c1)C(=O)NCC1(CCN(C(=O)c3ccco3)CC1)O2 [CBK282894] | 100 |
| C=CCNCc1cc2c(C)nn(-c3ccccc3)c2[nH]c1=O [CBK282898] | 88.7 |
| CC(=O)N1CCc2sccc2C1c1ccccc1NC(=O)C1CC1 (stereo not shown) [CBK282903] | 95 |
| COc1ccc(F)c(C2NC(=O)CCC2N)c1 (stereo not shown) [CBK282905] | 97.6 |
| CC(=O)N1CCc2sccc2C1c1ccc(NC(=O)C2CC2)cc1 (stereo not shown) [CBK282907] | 87.8 |
| CC(C)n1cccc1CN[C@@H]1CCC(=O)N[C@H]1c1cccc(F)c1 [CBK282908] | 91.1 |
| O=C1CC[C@@H](NCc2ccccn2)[C@H](c2cc(F)cc(F)c2)N1 [CBK282911] | 98.8 |
| CCn1ncc(CN[C@@H]2CCC(=O)N[C@H]2c2cc(F)cc(F)c2)c1C [CBK282914] | 98.3 |
| Cc1cc(N2CCCC2)c(F)cc1CN1CCC(CO)C1 (stereo not shown) [CBK282916] | 93.6 |
| O=C1NCC2(CCN(C(=O)c3cccs3)CC2)Oc2ccccc21 [CBK282917] | 100 |
| O=C1NCC2(CCN(C(=O)C3CCCC3)CC2)Oc2ccccc21 [CBK282920] | 94.1 |
| Cc1nn(-c2ccccc2)c2[nH]c(=O)c(CNC(C)(C)C)cc12 [CBK282921] | 101 |
| CC(C)(C)C(=O)N1CCc2cc(C(O)CN3CCCC3)ccc21 (stereo not shown) [CBK282923] | 93 |
| CC1CCN(CC(O)c2ccc3c(c2)CCN3C(=O)C2CC2)CC1 (stereo not shown) [CBK282927] | 102 |
| Cc1cc(C)n(-c2cccc(CN3CCC(CO)C3)c2)n1 (stereo not shown) [CBK282928] | 94.8 |

| Compound | viability at 28.5 h, 10 µM [%] |
| --- | --- |
| OCC1CCN(Cc2ccc(OC3CCCC3)cc2)C1 (stereo not shown) [CBK282929] | 99.5 |
| C[C@]12CN(Cc3ccccc3)C[C@H]1CNc1ccccc1C(=O)N2 [CBK282932] | 94.1 |
| C=C(C)CN1CCN(C(=O)C(CC)Oc2ccccc2F)CC1 (stereo not shown) [CBK282935] | 90.1 |
| CCN1CC(C(=O)N2CCN(C(=O)c3ccccc3F)CC2)CC1=O (stereo not shown) [CBK282937] | 92.3 |
| Cn1cc(C2CCCCCN2Cc2cc(Cl)ccc2O)cn1 (stereo not shown) [CBK282941] | 100 |
| OC1(c2ccc(F)cc2)CC2CCC(C1)N2CC1=CCCOC1 (stereo not shown) [CBK282942] | 106 |
| OCCN(Cc1cccnc1)CC1(c2ccc(Cl)cc2)CC1 [CBK282943] | 101 |
| Cc1cc2nc(C3CCCN3C(=O)CN3CCCCC3)[nH]c2cc1C (stereo not shown) [CBK282944] | 91.3 |
| OCCN(Cc1cccnc1)Cc1cccn1Cc1ccccc1F [CBK282945] | 93.5 |
| COCCCN(Cc1ccccn1)Cc1cccc(F)c1F [CBK282947] | 84.5 |
| O=C(N[C@H]1C2CCCCC2[C@@H]1c1ccccc1)c1cncnc1 (stereo partly shown) [CBK282949] | 94.3 |
| COCCCN(Cc1ccccn1)Cc1cc(F)ccc1F [CBK282950] | 108 |
| O=C(COc1cccnc1)N[C@H]1C2CCCCC2[C@@H]1c1ccccc1 (stereo partly shown) [CBK282951] | 100 |
| CCn1ncc(CN(CCN(C)C)Cc2cccs2)c1C [CBK282958] | 107 |
| Cc1nccn1CCCn1cncc1-c1ccc2c(c1)CCCN2C [CBK282962] | 93.1 |
| Cc1cc(N2CCCC2)c(F)cc1CN1CCC(O)C(C)C1 (stereo not shown) [CBK282963] | 91.6 |
| CC(C(=O)N[C@H]1C2CCCCC2[C@@H]1c1ccccc1)N1CCOCC1 (stereo partly shown) [CBK282964] | 86.4 |
| CCn1c(CN[C@@H]2CCC[C@H]2Cc2cc(C)no2)cnc1SC [CBK282965] | 96.6 |
